From patent publication US20230118795A1, “ARYL OR HETEROARYL PYRIDONE OR PYRIMIDINE DERIVATIVE, PREPARATION METHOD AND USE THEREOF” (SUZHOU ZELGEN BIOPHARMACEUTICALS CO., LTD., priority 2020, published 2023)
Like-named read-outs stand apart in the source and are kept apart here. Each block holds one compound with its values, some of them ahead of it.

Experiments:
[1] = test system: NCI-H358 (KRAS^G12C mutation) cell; test: Cell assay of antiproliferative activity against NCI-H358 cell (Celltiter-Glo, 5 days); type: cell-based; conditions: 5 days incubation
Summary of the method: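 KRAS G12C NCI-H358 cells were plated in 384-well format and incubated overnight before compound addition. Compounds were added as a 10-point series (diluted from 50 μM to 0.003 μM before transfer) and incubated 5 days. Viability by CellTiter-Glo luminescence, with IC50 from curve fitting.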

[2] = Pharmacokinetic test in mice, plasma concentration by LC/MS/MS; type: in vivo; conditions: male ICR mice, 30 mg/kg by gavage, CMC/TW80 carrier, n = 4, mean
Experimental: Evaluation of Pharmacokinetic Tests in Mice
Male ICR mice with a body weight of about 20-30 g, were given 30 mg/kg of solutions of compounds of Examples 10B, 16B, 18A, 63B and 78B of the present invention [CMC/TW80 as carrier] by gavage after fasting overnight. Blood samples were collected at 0.5, 1.0, 2.0, 4.0, 6.0, 8.0, 12 and 24 hours after the compound was administrated, and the concentrations of the compound in plasma were determined by LC/MS/MS.

[3] = test system: NCI-H358 tumor cells; test: H358 CDX tumor model, anti-tumor activity; type: in vivo; conditions: NCI-H358 xenograft in nude mice; for efficacy compared with control compound AMG 510 (in words): 20 mg/Kg; for TV (mm^3) Day 0: Day 0 (at grouping), 20 mg/Kg intragastric every day; for % TGI / % Tumor Growth / TV (mm^3) Day 20: Day 20, 20 mg/Kg intragastric every day
Experimental: 100 uL suspension containing 5×10^6 NCI-H358 tumor cells was subcutaneously injected into the right posterior back of nude mice. The health of the mice was monitored daily. Measurements were started when the tumor grew palpable. The tumor volume calculation formula was adopted: 0.5×L×W2, where L and W represented tumor length and width, respectively. The tumor grew to about 200 mm^3, the mice were randomly divided into groups. Mice were intragastrically administrated the corresponding dose (20 mg/Kg) of the compound's solution every day, and their general status was monitored at the same time. The tumor was measured 2 times a week, and the weight was measured twice a week.

Compound: C=CC(=O)N1CCN(c2nc(=O)n(-c3c(C)ccnc3C(C)C)c3nc(-c4c(O)cccc4F)c(F)cc23)[C@@H](C)C1 [AMG510, reference compound]
- TV (mm^3) Day 0 [3]: 196 mm^3
- % TGI [3]: 86.8%
- % Tumor Growth [3]: 117%
- TV (mm^3) Day 20 [3]: 437 mm^3

Compound: C=CC(=O)N1CCN(c2nc(=O)n(-c3c(C(C)C)cccc3S(C)(=O)=O)c3nc(-c4ccc[nH]c4=O)c(F)cc23)[C@@H](C)C1 [Example 71, (S)-4-(4-acryloyl-2-methylpiperazin-1-yl)-6-fluoro-1-(2-isopropyl-6-(methylsulfonyl)phenyl)-7-(2-oxo-1,2-dihydropyridin-3-yl) pyridino[2,3-d] pyrimidin-2 (1H)-one]
- IC50 ([1]; Homo sapiens, NCI-H358, 120 h): > 10000 nM

Compound: C=CC(=O)N1CCN(c2nc(=O)n(-c3c(C(C)C)cccc3S(C)(=O)=O)c3nc(-c4cccc(=O)[nH]4)c(F)cc23)[C@@H](C)C1 [Example 72, (S)-4-(4-acryloyl-2-methylpiperazin-1-yl)-6-fluoro-1-(2-isopropyl-6-(methylsulfonyl)phenyl)-7-(6-oxo-1,6-dihydropyridin-2-yl) pyridino[2,3-d] pyrimidin-2 (1H)-one]
- IC50 ([1]; Homo sapiens, NCI-H358, 120 h): > 10000 nM

Compound: C=CC(=O)N1CCN(c2nc(=O)n(-c3c(C(C)C)cccc3S(C)(=O)=O)c3nc(-c4cccn(C)c4=O)c(F)cc23)[C@@H](C)C1 [Example 73, (S)-4-(4-acryloyl-2-methylpiperazin-1-yl)-6-fluoro-1-(2-isopropyl-6-(methylsulfonyl)phenyl)-7-(1-methyl-2-oxo-1,2-dihydropyridin-3-yl) pyridino[2,3-d] pyrimidin-2 (1H)-one]
- IC50 ([1]; Homo sapiens, NCI-H358, 120 h): > 10000 nM

Compound: C=CC(=O)N1CCN(c2nc(=O)n(-c3c(C(C)C)cccc3S(C)(=O)=O)c3nc(-c4cccc(=O)n4C)c(F)cc23)[C@@H](C)C1 [Example 74, (S)-4-(4-acryloyl-2-methylpiperazin-1-yl)-6-fluoro-1-(2-isopropyl-6-(methylsulfonyl)phenyl)-7-(1-methyl-6-oxo-1,6-dihydropyridin-2-yl) pyridino[2,3-d] pyrimidin-2 (1H)-one]
- IC50 ([1]; Homo sapiens, NCI-H358, 120 h): > 10000 nM

Compound: C=CC(=O)N1CCN(c2nc(=O)n(-c3c(C(C)C)cccc3S(C)(=O)=O)c3nc(-c4c(Cl)ccc5cn[nH]c45)c(F)cc23)[C@@H](C)C1 [Example 75]
- IC50 [1]: > 10000 nM

Compound: C=CC(=O)N1CCN(c2nc(=O)n(-c3c(C(C)C)cccc3S(C)(=O)=O)c3nc(-c4c(C)ncn4C)c(F)cc23)[C@@H](C)C1 [Example 76, 4-((S)-4-acryloyl-methylpiperazin-1-yl)-7-(1,4-dimethyl-1H-imidazol-5-yl)-6-fluoro-1-(2-isopropyl-6-(methylsulfonyl)phenyl) pyridino [2,3-d] pyrimidin-2 (1H)-one]
- IC50 ([1]; Homo sapiens, NCI-H358, 120 h): > 10000 nM

Compound: C=CC(=O)N1CCN(c2nc(=O)n(-c3c(C(C)C)cccc3S(C)(=O)=O)c3nc(-c4c(F)cccc4C(=O)OC)c(F)cc23)[C@@H](C)C1 [Example 77]
- IC50 ([1]; Homo sapiens, NCI-H358, 120 h): > 10000 nM

Compound: C=CC(=O)N1CCN(c2nc(=O)n(-c3ccccc3S(C)(=O)=O)c3nc(-c4c(O)cccc4F)c(F)cc23)[C@@H](C)C1 [Example 85, 4-((S)-4-acryloyl-2-methylpiperazin-1-yl)-6-fluoro-7-(2-fluoro-6-hydroxyphenyl)-1-(2-(methylsulfonyl)phenyl) pyridino[2,3-d] pyrimidin-2(1H)-one]
- IC50 ([1]; Homo sapiens, NCI-H358, 120 h): < 1000 nM

Compound: C=CC(=O)N1CCN(c2nc(=O)n(-c3ccccc3S(=O)(=O)C(C)C)c3nc(-c4c(O)cccc4F)c(F)cc23)[C@@H](C)C1 [Example 86, 4-((S)-4-acryloyl-2-methylpiperazin-1-yl)-6-fluoro-7-(2-fluoro-6-hydroxyphenyl)-1-(2-(isopropylsulfonyl)phenyl) pyridino[2,3-d] pyrimidin-2(1H)-one]
- IC50 ([1]; Homo sapiens, NCI-H358, 120 h): < 1000 nM

Compound: C=CC(=O)N1CCN(c2nc(=O)n(-c3c(C)cccc3S(C)(=O)=O)c3nc(-c4c(O)cccc4F)c(F)cc23)[C@@H](C)C1 [Example 87, 4-((S)-4-acryloyl-2-methylpiperazin-1-yl)-6-fluoro-7-(2-fluoro-6-hydroxyphenyl)-1-(2-methyl-6-(methylsulfonyl)phenyl) pyridino[2,3-d] pyrimidin-2(1H)-one]
- IC50 ([1]; Homo sapiens, NCI-H358, 120 h): < 100 nM

Compound: C=CC(=O)N1CCN(c2nc(=O)n(-c3cccnc3S(C)(=O)=O)c3nc(-c4c(O)cccc4F)c(F)cc23)[C@@H](C)C1 [Example 88, 4-((S)-4-acryloyl-2-methylpiperazin-1-yl)-6-fluoro-7-(2-fluoro-6-hydroxyphenyl)-1-(2-(methylsulfonyl)pyridin-3-yl) pyridino [2,3-d] pyrimidin-2(1H)-one]
- IC50 [1]: 1000 to 10000 nM

Compound: C=CC(=O)N1CCN(c2nc(=O)n(-c3cnccc3S(C)(=O)=O)c3nc(-c4c(O)cccc4F)c(F)cc23)[C@@H](C)C1 [Example 89]
- IC50 [1]: 1000 to 10000 nM

Compound: C=CC(=O)N1CCN(c2nc(=O)n(-c3ccccc3S(C)(=O)=O)c3nc(-c4c(O)cccc4F)c(F)cc23)CC1CC#N (stereo not drawn) [Example 90, 2-(1-acryloyl-4-(6-fluoro-7-(2-fluoro-6-hydroxyphenyl)-1-(2-(methylsulfonyl)phenyl)-2-oxo-1,2-dihydropyridino [2,3-d]pyrimidin-4-yl)piperazin-2-yl) acetonitrile]
- IC50 [1]: 1000 to 10000 nM

Compound: C=CC(=O)N1CCN(c2nc(=O)n(-c3c(C)cccc3S(C)(=O)=O)c3nc(-c4c(O)cccc4F)c(F)cc23)CC1CC#N (stereo not drawn) [Example 91, 2-(1-acryloyl-4-(6-fluoro-7-(2-fluoro-6-hydroxyphenyl)-1-(2-methyl-6-(methylsulfonyl)phenyl)-2-oxo-1,2-dihydropyridino [2,3-d]pyrimidin-4-yl)piperazin-2-yl) acetonitrile]
- IC50 [1]: 1000 to 10000 nM

Compound: C=CC(=O)N1CCN(c2nc(=O)n(-c3cccnc3S(C)(=O)=O)c3nc(-c4c(O)cccc4F)c(F)cc23)CC1CC#N (stereo not drawn) [Example 92, 2-(1-acryloyl-4-(6-fluoro-7-(2-fluoro-6-hydroxyphenyl)-1-(2-(methylsulfonyl)pyridin-3-yl)-2-oxo-1,2-dihydropyridino [2,3-d]pyrimidin-4-yl)piperazin-2-yl) acetonitrile]
- IC50 [1]: > 10000 nM

The next lines start with results.

- IC50 [1]: 5 nM
- AUC0-t [2]: 1548 ng·h/mL
- Cmax [2]: 1570 ng/mL
Compound: C=CC(=O)N1CCN(c2nc(=O)n(-c3c(C(C)C)cccc3S(C)(=O)=O)c3nc(-c4c(O)cccc4F)c(F)cc23)[C@@H](C)C1 (single isomer, unassigned) [Example 10B]

- IC50 [1]: 7 nM
- AUC0-t [2]: 46.1 ng·h/mL
- Cmax [2]: 26.1 ng/mL
Compound: C=CC(=O)N1CCN(c2nc(=O)n(-c3c(C(C)C)ccnc3S(C)(=O)=O)c3nc(-c4c(O)cccc4F)c(F)cc23)[C@@H](C)C1 (single isomer, unassigned) [Example 16B]

- IC50 [1]: 13 nM
- AUC0-t ([2]; mouse, po, read-out: AUC0-t): 219 ng·h/mL
- Cmax ([2]; mouse, po, read-out: Cmax): 336 ng/mL
Compound: C=CC(=O)N1CCN(c2nc(=O)n(-c3c(S(C)(=O)=O)ccnc3C(C)C)c3nc(-c4c(O)cccc4F)c(F)cc23)[C@@H](C)C1 (single isomer, unassigned) [Example 18A]

- IC50 [1]: 8 nM
- AUC0-t [2]: 1540 ng·h/mL
- Cmax [2]: 796 ng/mL
Compound: C=CC(=O)N1C[C@H](C)N(c2nc(=O)n(-c3c(C4CCC4)cccc3S(C)(=O)=O)c3nc(-c4c(O)cccc4F)c(F)cc23)C[C@H]1C (single isomer, unassigned) [Example 63B]
- efficacy compared with control compound AMG 510 (in words) [3]: better efficacy than the control compound AMG 510
- TV (mm^3) Day 0 [3]: 196 mm^3
- % TGI [3]: 97.8%
- % Tumor Growth [3]: 19%
- TV (mm^3) Day 20 [3]: 263 mm^3

- IC50 [1]: 7 nM
- AUC0-t [2]: 688 ng·h/mL
- Cmax [2]: 722 ng/mL
Compound: C=CC(=O)N1C[C@H](C)N(c2nc(=O)n(-c3c(C(C)C)cccc3S(C)(=O)=O)c3nc(-c4c(O)cccc4F)c(F)cc23)C[C@H]1C (single isomer, unassigned) [Example 78B]
- efficacy compared with control compound AMG 510 (in words) [3]: better efficacy than the control compound AMG 510
- TV (mm^3) Day 0 [3]: 196 mm^3
- % TGI [3]: 98.5%
- % Tumor Growth [3]: 13%
- TV (mm^3) Day 20 [3]: 231 mm^3

- IC50 ([1]; Homo sapiens, NCI-H358, 120 h): 170 nM
Compound: C=CC(=O)N1C[C@H](C)N(c2nc(=O)n(-c3c(C(C)C)cccc3S(C)(=O)=O)c3nc(-c4c(O)cccc4F)c(F)cc23)C[C@H]1C [Example 78A]
